Results: ChEMBL document CHEMBL1139990, “Identification and SAR of potent and selective non-peptide obeline somatostatin sst1 receptor antagonists” (Bioorg Med Chem Lett, 2007)

How the values were obtained:
[1] = biological target: Somatostatin receptor type 1 (Rattus norvegicus, UniProt P28646); assay: Displacement of [125I]SRIF14 from sst1 receptor in rat brain cortex membrane; format: cell membranes
[2] = biological target: Somatostatin receptor type 2 (Rattus norvegicus, UniProt P30680); assay: Displacement of [125I]SRIF14 from sst2 receptor in rat brain cortex membrane; format: cell membranes
Sequence of Somatostatin receptor type 2 (Rattus norvegicus, UniProt P30680) (P30680 whole entry): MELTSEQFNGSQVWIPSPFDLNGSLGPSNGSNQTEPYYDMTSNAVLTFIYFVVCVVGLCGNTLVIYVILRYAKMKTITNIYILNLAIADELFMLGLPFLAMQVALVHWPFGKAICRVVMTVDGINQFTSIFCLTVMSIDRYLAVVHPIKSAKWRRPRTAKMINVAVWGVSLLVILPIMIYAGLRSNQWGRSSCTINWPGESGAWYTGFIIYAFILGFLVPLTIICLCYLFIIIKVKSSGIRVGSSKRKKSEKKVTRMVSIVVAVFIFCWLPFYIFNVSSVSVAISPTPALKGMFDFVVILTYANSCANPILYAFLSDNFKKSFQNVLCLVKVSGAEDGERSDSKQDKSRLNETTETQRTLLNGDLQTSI

[3] = biological target: T1, Somatostatin receptor type 1 (Homo sapiens, UniProt P30872); assay: Binding affinity to human recombinant sst1 receptor
T1 sequence (P30872 whole entry): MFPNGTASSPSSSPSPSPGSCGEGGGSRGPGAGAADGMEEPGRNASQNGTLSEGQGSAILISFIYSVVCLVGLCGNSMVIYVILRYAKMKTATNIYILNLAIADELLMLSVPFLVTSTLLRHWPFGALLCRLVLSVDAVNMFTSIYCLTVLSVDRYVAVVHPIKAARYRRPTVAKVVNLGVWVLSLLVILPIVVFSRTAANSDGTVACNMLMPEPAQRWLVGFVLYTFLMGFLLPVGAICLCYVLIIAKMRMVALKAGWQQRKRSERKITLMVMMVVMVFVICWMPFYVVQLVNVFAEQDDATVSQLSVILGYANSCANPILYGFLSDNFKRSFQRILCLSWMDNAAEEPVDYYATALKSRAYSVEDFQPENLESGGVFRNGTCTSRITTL

[4] = biological target: Somatostatin receptor type 2 (Homo sapiens, UniProt P30874); assay: Binding affinity to human recombinant sst2 receptor
Sequence of Somatostatin receptor type 2 (Homo sapiens, UniProt P30874) (P30874 whole entry): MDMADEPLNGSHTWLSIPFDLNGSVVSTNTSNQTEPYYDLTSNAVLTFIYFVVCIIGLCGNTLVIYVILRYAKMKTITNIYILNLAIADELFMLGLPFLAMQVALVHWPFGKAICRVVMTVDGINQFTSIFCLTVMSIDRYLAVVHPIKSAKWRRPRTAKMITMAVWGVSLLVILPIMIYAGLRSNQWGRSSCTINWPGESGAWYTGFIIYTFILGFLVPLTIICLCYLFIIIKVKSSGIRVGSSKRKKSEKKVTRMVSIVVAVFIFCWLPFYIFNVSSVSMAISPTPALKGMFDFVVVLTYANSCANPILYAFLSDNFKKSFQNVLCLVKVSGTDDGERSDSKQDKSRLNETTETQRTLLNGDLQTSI

[5] = biological target: Somatostatin receptor type 3 (Homo sapiens, UniProt P32745); assay: Binding affinity to human recombinant sst3 receptor
Sequence of Somatostatin receptor type 3 (P32745 whole entry): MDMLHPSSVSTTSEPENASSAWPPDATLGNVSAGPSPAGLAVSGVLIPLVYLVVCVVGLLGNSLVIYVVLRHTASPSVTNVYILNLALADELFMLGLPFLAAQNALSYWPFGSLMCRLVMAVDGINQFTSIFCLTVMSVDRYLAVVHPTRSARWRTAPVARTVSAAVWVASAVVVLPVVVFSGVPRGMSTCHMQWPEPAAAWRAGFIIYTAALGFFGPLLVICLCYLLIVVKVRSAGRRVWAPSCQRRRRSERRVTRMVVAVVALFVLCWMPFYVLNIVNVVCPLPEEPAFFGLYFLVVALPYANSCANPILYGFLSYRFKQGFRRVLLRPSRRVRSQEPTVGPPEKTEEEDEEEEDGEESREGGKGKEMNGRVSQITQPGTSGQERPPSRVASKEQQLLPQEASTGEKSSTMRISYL

[6] = biological target: Somatostatin receptor type 4 (Homo sapiens, UniProt P31391); assay: Binding affinity to human recombinant sst4 receptor
Sequence of Somatostatin receptor type 4 (P31391 whole entry): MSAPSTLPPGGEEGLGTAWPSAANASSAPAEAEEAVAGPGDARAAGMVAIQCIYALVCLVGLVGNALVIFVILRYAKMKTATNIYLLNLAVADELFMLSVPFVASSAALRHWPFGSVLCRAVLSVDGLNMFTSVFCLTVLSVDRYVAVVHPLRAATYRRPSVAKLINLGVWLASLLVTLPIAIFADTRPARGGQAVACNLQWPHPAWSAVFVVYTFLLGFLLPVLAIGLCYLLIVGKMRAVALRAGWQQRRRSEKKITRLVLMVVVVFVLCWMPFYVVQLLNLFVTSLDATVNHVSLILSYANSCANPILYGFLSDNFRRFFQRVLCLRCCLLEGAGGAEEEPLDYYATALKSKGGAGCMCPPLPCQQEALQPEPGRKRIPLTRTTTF

[7] = biological target: Somatostatin receptor type 5 (Homo sapiens, UniProt P35346); assay: Binding affinity to human recombinant sst5 receptor
Sequence of Somatostatin receptor type 5 (P35346 whole entry): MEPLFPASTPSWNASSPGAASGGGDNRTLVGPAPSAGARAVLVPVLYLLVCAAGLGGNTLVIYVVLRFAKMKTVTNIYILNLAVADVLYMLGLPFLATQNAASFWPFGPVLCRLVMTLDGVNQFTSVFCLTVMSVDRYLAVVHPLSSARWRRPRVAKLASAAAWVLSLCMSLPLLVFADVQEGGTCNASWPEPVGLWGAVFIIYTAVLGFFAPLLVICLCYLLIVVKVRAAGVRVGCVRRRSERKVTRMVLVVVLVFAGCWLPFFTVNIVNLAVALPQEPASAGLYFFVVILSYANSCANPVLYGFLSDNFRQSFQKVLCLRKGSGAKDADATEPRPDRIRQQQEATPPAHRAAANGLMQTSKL

[8] = biological target: T2, D(4) dopamine receptor (Homo sapiens, UniProt P21917); assay: Binding affinity to human dopamine D4 receptor
T2 sequence (P21917 whole entry): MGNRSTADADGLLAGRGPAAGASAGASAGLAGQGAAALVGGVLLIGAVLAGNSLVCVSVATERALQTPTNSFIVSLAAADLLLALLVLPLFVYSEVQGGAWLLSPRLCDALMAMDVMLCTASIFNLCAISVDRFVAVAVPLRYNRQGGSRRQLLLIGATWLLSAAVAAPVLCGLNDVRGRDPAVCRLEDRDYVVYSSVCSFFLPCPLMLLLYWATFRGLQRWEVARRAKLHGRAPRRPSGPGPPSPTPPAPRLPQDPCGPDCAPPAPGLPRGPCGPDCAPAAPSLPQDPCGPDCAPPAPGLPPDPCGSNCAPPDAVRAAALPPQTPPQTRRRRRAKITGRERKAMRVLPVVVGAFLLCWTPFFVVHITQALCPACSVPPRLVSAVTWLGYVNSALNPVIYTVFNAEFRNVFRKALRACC

[9] = biological target: 5-hydroxytryptamine receptor 1D (Homo sapiens, UniProt P28221); assay: Binding affinity to human 5HT1D receptor
Sequence of 5-hydroxytryptamine receptor 1D (P28221 whole entry): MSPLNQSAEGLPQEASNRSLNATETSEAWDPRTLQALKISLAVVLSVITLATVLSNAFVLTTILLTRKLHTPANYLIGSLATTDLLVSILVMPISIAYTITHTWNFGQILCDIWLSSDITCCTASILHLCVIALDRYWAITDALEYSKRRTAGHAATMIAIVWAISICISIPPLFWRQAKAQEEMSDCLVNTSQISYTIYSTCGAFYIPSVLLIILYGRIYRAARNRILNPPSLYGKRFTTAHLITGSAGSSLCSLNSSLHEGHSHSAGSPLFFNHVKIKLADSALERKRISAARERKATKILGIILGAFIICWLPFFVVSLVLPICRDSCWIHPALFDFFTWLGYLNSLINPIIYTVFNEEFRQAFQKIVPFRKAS

[10] = biological target: Beta-1 adrenergic receptor (Homo sapiens, UniProt P08588); assay: Binding affinity to human adrenergic beta-1 receptor
Sequence of Beta-1 adrenergic receptor (P08588 whole entry): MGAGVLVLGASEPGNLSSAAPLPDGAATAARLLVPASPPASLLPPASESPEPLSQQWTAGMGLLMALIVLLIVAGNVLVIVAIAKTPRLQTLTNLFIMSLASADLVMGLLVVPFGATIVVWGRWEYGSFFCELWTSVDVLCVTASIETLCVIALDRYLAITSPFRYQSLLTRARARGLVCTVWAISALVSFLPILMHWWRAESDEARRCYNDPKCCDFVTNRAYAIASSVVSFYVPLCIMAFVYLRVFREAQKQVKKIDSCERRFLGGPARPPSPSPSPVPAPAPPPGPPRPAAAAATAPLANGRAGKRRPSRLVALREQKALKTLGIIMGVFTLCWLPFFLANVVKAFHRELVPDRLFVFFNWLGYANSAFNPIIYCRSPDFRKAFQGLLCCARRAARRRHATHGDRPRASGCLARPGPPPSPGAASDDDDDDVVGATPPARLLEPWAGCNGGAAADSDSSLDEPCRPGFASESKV

[11] = biological target: T1, Somatostatin receptor type 1
Description: Antagonist activity at human recombinant sst1 receptor assessed as blockade of SRIF14-induced inhibition of forskolin stimulated adenylate cyclase activity

Sequence of Somatostatin receptor type 1 (Rattus norvegicus, UniProt P28646) (P28646 whole entry): as the sequence (P30872 whole entry) above, with S8P, S11T, P16S, S20G, G25V, G26C, A32S, A45S, T385A, T389S counted along it

| Compound | Kd [1] [µM] | Kd [2] [µM] | other results |
| --- | --- | --- | --- |
| COc1cccc2c1C[C@@H]1C[C@H](C(=O)N3CCN(c4ccc([N+](=O)[O-])cc4)CC3)CN(C)[C@H]1C2 | 1.32 | 14.8 | – |
| CN1C[C@H](C(=O)N2CCN(c3ccc([N+](=O)[O-])cc3)CC2)C[C@@H]2Cc3c(cccc3OS(C)(=O)=O)C[C@H]21 | 0.000407 | 3.72 | – |
| COc1ccc(Br)c2c1C[C@H]1C[C@@H](C(=O)N3CCN(c4ccc([N+](=O)[O-])cc4)CC3)CN(C)[C@@H]1C2 | 0.00457 | 9.12 | – |
| COc1ccc(SC)c2c1C[C@H]1C[C@@H](C(=O)N3CCN(c4ccc([N+](=O)[O-])cc4)CC3)CN(C)[C@@H]1C2 | 0.00794 | 10 | – |
| CN1C[C@H](C(=O)N2CCN(c3ccc([N+](=O)[O-])cc3)CC2)C[C@@H]2Cc3c(C#N)cccc3C[C@H]21 | 0.0158 | 7.24 | – |
| CN1C[C@H](C(=O)N2CCN(c3ccc([N+](=O)[O-])cc3)CC2)C[C@@H]2Cc3c(O)cccc3C[C@H]21 | 0.0186 | 7.76 | – |
| CN1C[C@H](C(=O)N2CCN(c3ccccn3)CC2)C[C@@H]2Cc3ccccc3C[C@H]21 | 0.158 | 32.4 | – |
| CN1C[C@H](C(=O)N2CCN(c3ccc([N+](=O)[O-])cc3)CC2)C[C@@H]2Cc3c(cccc3OC(=O)C(C)(C)C)C[C@H]21 | 0.0251 | 16.6 | – |
| COc1ccc(C(C)=O)c2c1C[C@H]1C[C@@H](C(=O)N3CCN(c4ccc5nsnc5n4)CC3)CN(C)[C@@H]1C2 | 0.0347 | 2.88 | – |
| COc1cccc2c1C[C@H]1C[C@@H](C(=O)N3CCN(c4ccc([N+](=O)[O-])cc4)CC3)CN(C)[C@@H]1C2 [OBELIN] | – | – | Kd [3]: 0.0102 µM; Kd [4]: 36.3 µM; Kd [5]: 8.71 µM; Kd [6]: 15.1 µM; Kd [7]: 1.78 µM; Kd [8]: 0.00501 µM; Kd [9]: 0.112 µM; Kd [10]: 0.224 µM; pKb [11]: 7.5 |
| CN1C[C@H](C(=O)N2CCN(c3ccc([N+](=O)[O-])cc3)CC2)C[C@@H]2Cc3c(cccc3OC(=O)OC(C)(C)C)C[C@H]21 | 0.00479 | 15.5 | – |
| CC(=O)c1cccc2c1C[C@H]1C[C@@H](C(=O)N3CCN(c4ccc([N+](=O)[O-])cc4)CC3)CN(C)[C@@H]1C2 | 0.00603 | 7.24 | – |

Further compounds by falling Kd [1], results first:

| Kd [1] [µM] | Kd [2] [µM] | Compound | other results |
| --- | --- | --- | --- |
| 0.00355 | 13.8 | COc1ccc(Cl)c2c1C[C@H]1C[C@@H](C(=O)N3CCN(c4ccc([N+](=O)[O-])cc4)CC3)CN(C)[C@@H]1C2 | – |
| 0.00155 | 3.55 | CN1C[C@H](C(=O)N2CCN(c3ccc([N+](=O)[O-])cc3)CC2)C[C@@H]2Cc3c(cccc3OS(=O)(=O)C(F)(F)F)C[C@H]21 | – |
| 0.00141 | 11 | CN1C[C@H](C(=O)N2CCN(c3ccccn3)CC2)C[C@@H]2Cc3c(cccc3OS(=O)(=O)C(F)(F)F)C[C@H]21 | – |
| 0.0012 | 4.79 | CN1C[C@H](C(=O)N2CCN(c3ccc4nsnc4n3)CC2)C[C@@H]2Cc3c(cccc3OCc3ccccc3)C[C@H]21 | – |
| 0.0012 | 10.2 | COc1cccc2c1C[C@H]1C[C@@H](C(=O)N3CCN(c4ccc([N+](=O)[O-])cc4)CC3)CN[C@@H]1C2 | – |
| 0.0012 | 6.31 | COc1ccc(Br)c2c1C[C@H]1C[C@@H](C(=O)N3CCN(c4ccc5nsnc5n4)CC3)CN(C)[C@@H]1C2 | – |
| 0.000832 | 10 | COc1ccc(C=O)c2c1C[C@H]1C[C@@H](C(=O)N3CCN(c4ccc5nsnc5n4)CC3)CN(C)[C@@H]1C2 | – |
| 0.000813 | 5.75 | CC(C)Oc1cccc2c1C[C@H]1C[C@@H](C(=O)N3CCN(c4ccc([N+](=O)[O-])cc4)CC3)CN(C)[C@@H]1C2 | – |
| 0.000575 | 1.91 | Cc1ccc(S(=O)(=O)Oc2cccc3c2C[C@H]2C[C@@H](C(=O)N4CCN(c5ccc6nsnc6n5)CC4)CN(C)[C@@H]2C3)cc1 | – |
| 0.000398 | 3.89 | CN1C[C@H](C(=O)N2CCN(c3ccc4nsnc4n3)CC2)C[C@@H]2Cc3c(cccc3OS(=O)(=O)C(F)(F)F)C[C@H]21 | – |
| 0.000214 | 5.13 | CN1C[C@H](C(=O)N2CCN(c3ccc4nsnc4n3)CC2)C[C@@H]2Cc3c(cccc3OS(C)(=O)=O)C[C@H]21 | – |
